Where only a bound is given, the exact number is not on record here.

In this assay the target is T1, human Cot catalytic domain (30-397 amino acids) (Homo sapiens, UniProt P41279).
T1 construct: Purified recombinant human Cot catalytic domain (30-397 amino acids) was purchased from Cama Biosciences; purchased Cama Biosciences (so in the source)
T1 sequence (P41279 30-397): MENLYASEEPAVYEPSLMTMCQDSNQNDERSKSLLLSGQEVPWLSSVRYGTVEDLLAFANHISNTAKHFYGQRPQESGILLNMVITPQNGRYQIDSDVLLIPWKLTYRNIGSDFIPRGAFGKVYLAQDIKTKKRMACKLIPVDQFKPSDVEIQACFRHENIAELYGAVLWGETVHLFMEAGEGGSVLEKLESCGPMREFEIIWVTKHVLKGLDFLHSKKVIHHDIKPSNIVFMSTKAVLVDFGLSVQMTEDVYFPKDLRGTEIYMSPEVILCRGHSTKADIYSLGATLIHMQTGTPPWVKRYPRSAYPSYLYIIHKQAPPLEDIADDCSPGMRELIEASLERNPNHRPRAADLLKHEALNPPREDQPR
Briefly: High Throughput Cot Biochemical Assay (KinEASE TR-FRET). To be noted: Cot KinEASE TR-FRET, 400 μM ATP; read-out: IC50 HTRF. Put shortly:
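TR-FRET (KinEASE) read-out: Eu-labelled phospho-specific antibody binds XL665-tagged STK3 peptide (1 μM) phosphorylated by 5 nM human Cot kinase domain (residues 30-397). Reaction at 400 μM ATP, pH 7.0 MOPS buffer with 10 mM MgOAc, 1 mM DTT and 0.1% DMSO.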
For the compound `N#Cc1cnc2c(Cl)cc(NC(c3ccc(F)c(F)c3)c3cn(C4CCNCC4)nn3)cc2c1Nc1ccc(F)c(Cl)c1` (stereo not shown) [Example 900, 8-chloro-4-((3-chloro-4-fluorophenyl)amino)-6-(((3,4-difluorophenyl)(1-(piperidin-4-yl)-1H-1,2,3-triazol-4-yl)methyl)amino)quinoline-3-carbonitrile], the IC50 was 14 nM.
`N#Cc1cnc2c(Cl)cc(NC(c3ccc(F)cc3)c3cn(C4CCNC4)nn3)cc2c1Nc1ccc(F)c(Cl)c1` (stereo in doubt) [Example 873, 8-chloro-4-((3-chloro-4-fluorophenyl)amino)-6-(((4-fluorophenyl)(1-((S)-pyrrolidin-3-yl)-1H-1,2,3-triazol-4-yl)methyl)amino)quinoline-3-carbonitrile]: the IC50 stood at 21 nM.
On to `CC(=O)N1CCC(n2cc(C(Nc3cc(Cl)c4ncc(C#N)c(Nc5ccc(F)c(Cl)c5)c4c3)c3ccc(F)cc3)nn2)CC1` (stereo not shown) [Example 844, 6-(((1-(1-acetylpiperidin-4-yl)-1H-1,2,3-triazol-4-yl)(4-fluorophenyl)methyl)amino)-8-chloro-4-((3-chloro-4-fluorophenyl)amino)quinoline-3-carbonitrile], for which the IC50 is 48 nM.
The figure for `CC1(C)C[C@H](n2cc([C@H](Nc3cc(Cl)c4ncc(C#N)c(Nc5ccc(F)c(Cl)c5)c4c3)c3ccccc3)nn2)CCN1` [Example 788, 8-chloro-4-((3-chloro-4-fluorophenyl)amino)-6-(((R)-(1-((R)-2,2-dimethylpiperidin-4-yl)-1H-1,2,3-triazol-4-yl)(phenyl)methyl)amino) quinoline-3-carbonitrile] is 1010 nM.
The figure for `N#Cc1cnc2c(Cl)cc(N[C@H](c3ccc(F)cc3)c3cn(C4CCNCC4)nn3)cc2c1Nc1ccc(F)c(Cl)c1` [Example 850, (R)-8-chloro-4-((3-chloro-4-fluorophenyl)amino)-6-(((4-fluorophenyl)(1-(piperidin-4-yl)-1H-1,2,3-triazol-4-yl)methyl)amino)quinoline-3-carbonitrile] is 926 nM; for `N#Cc1cnc2c(Cl)cc(NC(c3ccc(F)cc3)c3cn(C4CCN(C(=O)OCc5ccccc5)CC4)nn3)cc2c1Nc1ccc(F)c(Cl)c1` (stereo not shown) [Example 855, benzyl 4-(4-(((8-chloro-4-((3-chloro-4-fluorophenyl)amino)-3-cyanoquinolin-6-yl)amino)(4-fluorophenyl)methyl)-1H-1,2,3-triazol-1-yl)piperidine-1-carboxylate] it is 2400 nM.
Then `COCc1cccc([C@H](Nc2cc(Cl)c3ncc(C#N)c(Nc4ccc(F)c(Cl)c4)c3c2)c2cn(C3CCN(C(C)(C)C)CC3)nn2)c1` [Compound 38], with 2 nM; and `COc1cc2ncc(C#N)c(Nc3ccc(F)c(Cl)c3)c2cc1N[C@@H](c1ccc(Cl)cc1)c1cn(C2CCN(C(C)(C)C)CC2)nn1` [Example 769, (S)-6-(((1-(1-(tert-butyl)piperidin-4-yl)-1H-1,2,3-triazol-4-yl)(4-chlorophenyl)methyl)amino)-4-((3-chloro-4-fluorophenyl)amino)-7-methoxyquinoline-3-carbonitrile], with greater than 10000 nM; and `N#Cc1cnc2c(Cl)cc(N[C@@H](c3ccccc3)c3cn(C4CC5(CNC5)C4)nn3)cc2c1Nc1ccc(F)c(Cl)c1` [Example 775, (S)-6-(((1-(2-azaspiro[3.3]heptan-6-yl)-1H-1,2,3-triazol-4-yl)(phenyl)methyl)amino)-8-chloro-4-((3-chloro-4-fluorophenyl)amino)quinoline-3-carbonitrile], with 5 nM.
With `Cn1cc(C(Nc2cc(Cl)c3ncc(C#N)c(Nc4ccc(F)c(Cl)c4)c3c2)c2ccc(F)c(F)c2)nn1` (stereo not shown) [Example 891, 8-chloro-4-((3-chloro-4-fluorophenyl)amino)-6-(((3,4-difluorophenyl)(1-methyl-1H-1,2,3-triazol-4-yl)methyl)amino)quinoline-3-carbonitrile], the IC50 turned out to be 30 nM.
Then `Cn1cc(C(Nc2cc(Cl)c3ncc(C#N)c(Nc4ccc(F)c(Cl)c4)c3c2)c2cccc(CN3CCCC3)c2)nn1` (stereo not shown) [Example 852, 8-chloro-4-((3-chloro-4-fluorophenyl)amino)-6-(((1-methyl-1H-1,2,3-triazol-4-yl)(3-(pyrrolidin-1-ylmethyl)phenyl)methyl)amino)quinoline-3-carbonitrile], with 22 nM; and `CCN1CCC(n2cc(C(Nc3cc(Cl)c4ncc(C#N)c(Nc5ccc(F)c(Cl)c5)c4c3)c3ccc(Cl)c(Cl)c3)nn2)CC1` (stereo not shown) [Example 911, 8-chloro-4-((3-chloro-4-fluorophenyl)amino)-6-(((3,4-dichlorophenyl)(1-(1-ethylpiperidin-4-yl)-1H-1,2,3-triazol-4-yl)methyl)amino)quinoline-3-carbonitrile], with 36 nM; and `CCN1CCC(n2cc(C(Nc3cc(Cl)c4ncc(C#N)c(Nc5ccc(F)c(Cl)c5)c4c3)c3ccc(C)cc3)nn2)CC1` (stereo not shown) [Example 917, 8-chloro-4-((3-chloro-4-fluorophenyl)amino)-6-(((1-(1-ethylpiperidin-4-yl)-1H-1,2,3-triazol-4-yl)(p-tolyl)methyl)amino)quinoline-3-carbonitrile], with 23 nM.
The figure for `CN(c1ccc(F)c(Cl)c1)c1c(C#N)cnc2c(Cl)cc(N[C@@H](c3ccc(Cl)cc3)c3cn(C4CCN(C(C)(C)C)CC4)nn3)cc12` [Example 749, (S)-6-(((1-(1-(tert-butyl)piperidin-4-yl)-1H-1,2,3-triazol-4-yl)(4-chlorophenyl)methyl)amino)-8-chloro-4-((3-chloro-4-fluorophenyl)(methyl)amino) quinoline-3-carbonitrile] is 3210 nM.
The figure for `COc1cc2ncc(C#N)c(Nc3ccc(F)c(Cl)c3)c2cc1NC(c1ccc(F)cc1)c1cn(C)nn1` (stereo not shown) [Example 798, 4-((3-chloro-4-fluorophenyl)amino)-6-(((4-fluorophenyl)(1-methyl-1H-1,2,3-triazol-4-yl)methyl)amino)-7-methoxyquinoline-3-carbonitrile] is 7920 nM; for `CC(C)(C)N1CCC(n2cc([C@@H](Nc3cc(Cl)c4ncc(C#N)c(Nc5cccnc5)c4c3)c3ccc(Cl)cc3)nn2)CC1` [Example 772, (S)-6-(((1-(1-(tert-butyl)piperidin-4-yl)-1H-1,2,3-triazol-4-yl)(4-chlorophenyl)methyl)amino)-8-chloro-4-(pyridin-3-ylamino)quinoline-3-carbonitrile] it is 324 nM; for `CC(C)(CC(=O)O)n1cc([C@@H](Nc2cc(Cl)c3ncc(C#N)c(Nc4ccc(F)c(Cl)c4)c3c2)c2ccc(F)cc2)nn1` [Example 812, (S)-3-(4-(((8-chloro-4-((3-chloro-4-fluorophenyl)amino)-3-cyanoquinolin-6-yl)amino)(4-fluorophenyl)methyl)-1H-1,2,3-triazol-1-yl)-3-methylbutanoic acid] it is 794 nM.
As for `N#Cc1cnc2c(Cl)cc(N[C@@H](c3ccc(F)cc3)c3cn(C4CCN(C5COC5)CC4)nn3)cc2c1Nc1ccc(F)c(Cl)c1` [Compound 31], the IC50 is 19 nM.
The figure for `CCN1CCC(n2cc(C(Nc3cc(Cl)c4ncc(C#N)c(Nc5ccc(F)c(Cl)c5)c4c3)c3ccccc3)nn2)CC1` (stereo not shown) [Example 922, 8-chloro-4-((3-chloro-4-fluorophenyl)amino)-6-(((1-(1-ethylpiperidin-4-yl)-1H-1,2,3-triazol-4-yl)(phenyl)methyl)amino) quinoline-3-carbonitrile] is 4 nM; for `CC1(C)CC(n2cc(C(Nc3cc(Cl)c4ncc(C#N)c(Nc5ccc(F)c(Cl)c5)c4c3)c3ccc(F)cc3)nn2)CCN1` (stereo not shown) [Example 839, 8-chloro-4-((3-chloro-4-fluorophenyl)amino)-6-(((1-(2,2-dimethylpiperidin-4-yl)-1H-1,2,3-triazol-4-yl)(4-fluorophenyl)methyl)amino) quinoline-3-carbonitrile] it is 24 nM; for `N#Cc1cnc2c(Cl)cc(NC(c3ccc(Cl)cc3)c3cn([C@@H]4CCN(C(=O)OCc5ccccc5)C4)nn3)cc2c1Nc1ccc(F)c(Cl)c1` (stereo partly drawn) [Example 866, benzyl (3R)-3-(4-(((8-chloro-4-((3-chloro-4-fluorophenyl)amino)-3-cyanoquinolin-6-yl)amino)(4-chlorophenyl)methyl)-1H-1,2,3-triazol-1-yl)pyrrolidine-1-carboxylate] it is 2100 nM.
For the compound `N#Cc1cnc2c(Cl)cc(NC(c3cccc(F)c3)c3cn(C4CCN(C(=O)OCc5ccccc5)CC4)nn3)cc2c1Nc1ccc(F)c(Cl)c1` (stereo not shown) [Example 905, benzyl 4-(4-(((8-chloro-4-((3-chloro-4-fluorophenyl)amino)-3-cyanoquinolin-6-yl)amino)(3-fluorophenyl)methyl)-1H-1,2,3-triazol-1-yl)piperidine-1-carboxylate], the IC50 was greater than 1000 nM.
Then `N#Cc1cnc2c(Cl)cc(NC(c3ccc(F)cc3)c3cnccn3)cc2c1Nc1ccc(F)c(Cl)c1` (stereo not shown) [Example 801, 8-chloro-4-((3-chloro-4-fluorophenyl)amino)-6-(((4-fluorophenyl)(pyrazin-2-yl)methyl)amino)quinoline-3-carbonitrile], with 1070 nM.
Then `COc1cccc(C(Nc2cc(Cl)c3ncc(C#N)c(Nc4ccc(F)c(Cl)c4)c3c2)c2cn(C3CCNCC3)nn2)c1` (stereo not shown) [Example 903, 8-chloro-4-((3-chloro-4-fluorophenyl)amino)-6-(((3-methoxyphenyl)(1-(piperidin-4-yl)-1H-1,2,3-triazol-4-yl)methyl)amino)quinoline-3-carbonitrile], with 7 nM; and `CC(C)(C)OC(=O)N1CCC(n2cc([C@@H](Nc3cc(Cl)c4ncc(C#N)c(Nc5ccc(F)c(Cl)c5)c4c3)c3ccc(F)cc3)nn2)CC1` [Example 830, tert-butyl (S)-4-(4-(((8-chloro-4-((3-chloro-4-fluorophenyl)amino)-3-cyanoquinolin-6-yl)amino)(4-fluorophenyl)methyl)-1H-1,2,3-triazol-1-yl)piperidine-1-carboxylate], with 363 nM.

In general, IC50 refers to the concentration needed to halve the response being measured.

The values are drawn from patent US10316017B2, “COT modulators and methods of use thereof” (Gilead Sciences, Inc., priority 2015, dated 2019).
